From ChEMBL document CHEMBL2346619, “Cardioprotective potential of N,α-L-rhamnopyranosyl vincosamide, an indole alkaloid, isolated from the leaves of Moringa oleifera in isoproterenol induced cardiotoxic rats: in vivo and in vitro studies” (Bioorg Med Chem Lett, 2013)
Values after ≈ are worked out from the molar mass of the structure shown.

Tests used:
Rattus norvegicus [1] = test: Effect on Wister albino rat heart rate elevation at 40 mg/kg, po by Electrocardiographic assay (reference value: 265 +/- 3.71 beats/mins); format: ADME, organism-based; parameters: dose 40 mg/kg, route oral; conditions: in vivo
Rattus norvegicus [2] = test: Cardioprotective effect in isoproterenol-induced Wister albino rats assessed as inflammatory cells at 40 mg/kg, po for 7 days by light microscopy (reference value: 30.1%); format: functional
Rattus norvegicus [3] = test: Cardioprotective effect in isoproterenol-induced Wister albino rats assessed as inhibition of ST-segment elevation at 40 mg/kg, po for 7 days by Electrocardiographic assay (reference value: 0.390 +/- 0.015 mV); format: functional
Rattus norvegicus [4] = test: Cardioprotective effect in isoproterenol-induced Wister albino rats assessed as MDA level in serum per mg protein at 40 mg/kg, po for 7 days (reference value: 2.76 +/- 0.39 nmol/h/mg of protein); format: functional
Rattus norvegicus [5] = test: Effect on Wister albino rat ST-segment elevation at 40 mg/kg, po by Electrocardiographic assay (reference value: 0.157 +/- 0.003 mV); format: ADME, organism-based; parameters: dose 40 mg/kg, route oral; conditions: in vivo
[6] = Antioxidant activity assessed as super oxide scavenging activity; format: functional
[7] = system: Radical scavenging activity; test: Antioxidant activity assessed as DPPH radical scavenging activity; format: functional
Rattus norvegicus [8] = test: Cardioprotective effect in isoproterenol-induced Wister albino rats assessed as CK-MB level in serum at 40 mg/kg, po for 7 days (reference value: 146.56 +/- 7.14 IU/L); format: functional
Rattus norvegicus [9] = test: Effect on Wister albino rat LOOH level in serum per mg of protein at 40 mg/kg, po for 7 days (reference value: 2.90 +/- 0.74 noml/mg of protein); format: ADME, organism-based; parameters: dose 40 mg/kg, route oral; conditions: in vivo, 168 h
Rattus norvegicus [10] = test: Cardioprotective effect in isoproterenol-induced Wister albino rats assessed as cTnT level in serum at 40 mg/kg, po for 7 days (reference value: 1.99 +/- 0.06 ng/ml); format: functional
[11] = Antioxidant activity assessed as nitric oxide scavenging activity; format: functional
Rattus norvegicus [12] = test: Cardioprotective effect in isoproterenol-induced Wister albino rats assessed as inhibition of heart rate at 40 mg/kg, po for 7 days by Electrocardiographic assay (reference value: 430 +/- 5.16 beats/mins); format: functional
Rattus norvegicus [13] = test: Cardioprotective effect in isoproterenol-induced Wister albino rats assessed as LDH level in serum at 40 mg/kg, po for 7 days (reference value: 216.66 +/- 12.46 IU/L); format: functional
[14] = Antioxidant activity assessed as hydroxy radical scavenging activity; format: functional
Rattus norvegicus [15] = test: Effect on Wister albino rat inflammatory cells at 40 mg/kg, po by light microscopy (reference value: 0%); format: ADME, organism-based; parameters: dose 40 mg/kg, route oral; conditions: in vivo
Rattus norvegicus [16] = test: Effect on Wister albino rat tissue degradation at 40 mg/kg, po by light microscopy (reference value: 0%); format: ADME, organism-based; parameters: dose 40 mg/kg, route oral; conditions: in vivo
Rattus norvegicus [17] = test: Cardioprotective effect in isoproterenol-induced Wister albino rats assessed as tissue degradation at 40 mg/kg, po for 7 days by light microscopy (reference value: 55.15%); format: functional
Rattus norvegicus [18] = test: Effect on Wister albino rat MDA level in serum per mg of protein at 40 mg/kg, po for 7 days (reference value: 0.67 +/- 0.03 nmol/h/mg of protein); format: ADME, organism-based; parameters: dose 40 mg/kg, route oral; conditions: in vivo, 168 h
Rattus norvegicus [19] = test: Cardioprotective effect in isoproterenol-induced Wister albino rats assessed as tissue viability with less necrotic tissue at 40 mg/kg, po for 7 days by light microscopy (reference value: 52%); format: functional
Rattus norvegicus [20] = test: Cardioprotective effect in isoproterenol-induced Wister albino rats assessed as SGPT level in serum at 40 mg/kg, po for 7 days (reference value: 76.07 +/- 4.16 U/L); format: functional
Rattus norvegicus [21] = test: Effect on Wister albino rat cTnT level in serum at 40 mg/kg, po for 7 days (reference value: 0.66 +/- 0.02 ng/ml); format: ADME, organism-based; parameters: dose 40 mg/kg, route oral; conditions: in vivo, 168 h
Rattus norvegicus [22] = test: Effect on Wister albino rat CK-MB level in serum at 40 mg/kg, po for 7 days (reference value: 84.68 +/- 3.67 IU/L); format: ADME, organism-based; parameters: dose 40 mg/kg, route oral; conditions: in vivo, 168 h
Rattus norvegicus [23] = test: Effect on Wister albino rat SGPT level in serum at 40 mg/kg, po for 7 days (reference value: 30.25 +/- 3.17 U/L); format: ADME, organism-based; parameters: dose 40 mg/kg, route oral; conditions: in vivo, 168 h
[24] = Antioxidant activity assessed as ABTS radical scavenging activity; format: functional
Rattus norvegicus [25] = test: Cardioprotective effect in isoproterenol-induced Wister albino rats assessed as LOOH level in serum per mg protein at 40 mg/kg, po for 7 days (reference value: 7.67 +/- 1.07 noml/mg of protein); format: functional
Rattus norvegicus [26] = test: Effect on Wister albino rat LDH level in serum at 40 mg/kg, po for 7 days (reference value: 29.64 +/- 6.71 IU/L); format: ADME, organism-based; parameters: dose 40 mg/kg, route oral; conditions: in vivo, 168 h

Molecule `C=C[C@H]1[C@H](O[C@@H]2O[C@H](CO)[C@@H](O)[C@H](O)[C@H]2O)OC=C2C(=O)N3CCc4c(n(O[C@@H]5O[C@@H](C)[C@H](O)[C@@H](O)[C@H]5O)c5ccccc45)[C@H]3C[C@H]21` has an Activity (Rattus norvegicus [1]) of 270 bpm, an Activity (Rattus norvegicus [2]) of 0% and an Activity (Rattus norvegicus [3]) of 0.22 mV. For the same molecule, the Activity (Rattus norvegicus [4]) was 0.99 nmol/h/mg protein, the Activity (Rattus norvegicus [5]) was 0.14 mV and the IC50 [6] was 16.71 mg/L (≈ 25.3 µM). It also gave an IC50 [7] of 37.76 mg/L (≈ 57.2 µM), an Activity (Rattus norvegicus [8]) of 92.01 IU/L and an Activity (Rattus norvegicus [9]) of 2.62 nmol. For the same molecule, the Activity (Rattus norvegicus [10]) was 0.67 ng/mL, the IC50 [11] was 7.16 mg/L (≈ 10.8 µM) and the Activity (Rattus norvegicus [12]) was 260 bpm. The Activity (Rattus norvegicus [13]) was 160.72 IU/L, the IC50 [14] was 4.95 mg/L (≈ 7.49 µM) and the Activity (Rattus norvegicus [15]) was 0%. It also gave an Activity (Rattus norvegicus [16]) of 0%, an Activity (Rattus norvegicus [17]) of 0% and an Activity (Rattus norvegicus [18]) of 0.79 nmol/h/mg protein. For the same molecule, the Activity (Rattus norvegicus [19]) was 20%, the Activity (Rattus norvegicus [20]) was 58.92 U/L and the Activity (Rattus norvegicus [21]) was 0.62 ng/mL. For the same molecule, the Activity (Rattus norvegicus [22]) was 82.12 IU/L, the Activity (Rattus norvegicus [23]) was 22.11 U/L and the IC50 [24] was 29.65 mg/L (≈ 44.9 µM). For the same molecule, the Activity (Rattus norvegicus [25]) was 4.1 nmol and the Activity (Rattus norvegicus [26]) was 117.34 IU/L.
